We go through 1 molecule from the supplement of paper PMC12076712.

Holding throughout (experiment): pIC50, kinobeads binding competition
What all share (details): cell material: Jurkat lysate

Assay [1] deals with CAMKK1 (UniProt Q8N5S9).
The target of assay [2] is CSK (UniProt P41240).
The target in assay [3] is DDR1 (UniProt Q08345).
Assay [4] deals with PIM3 (UniProt Q86V86).
Assay [5] addresses PRKCH (UniProt P24723).
Assay [6] concerns the target RPS6KA4 (UniProt O75676).
The target of assay [7] is STK35 (UniProt Q8TDR2).
Assay [8] addresses T1, TGFBR1 (UniProt P36897).
T1 sequence (whole entry): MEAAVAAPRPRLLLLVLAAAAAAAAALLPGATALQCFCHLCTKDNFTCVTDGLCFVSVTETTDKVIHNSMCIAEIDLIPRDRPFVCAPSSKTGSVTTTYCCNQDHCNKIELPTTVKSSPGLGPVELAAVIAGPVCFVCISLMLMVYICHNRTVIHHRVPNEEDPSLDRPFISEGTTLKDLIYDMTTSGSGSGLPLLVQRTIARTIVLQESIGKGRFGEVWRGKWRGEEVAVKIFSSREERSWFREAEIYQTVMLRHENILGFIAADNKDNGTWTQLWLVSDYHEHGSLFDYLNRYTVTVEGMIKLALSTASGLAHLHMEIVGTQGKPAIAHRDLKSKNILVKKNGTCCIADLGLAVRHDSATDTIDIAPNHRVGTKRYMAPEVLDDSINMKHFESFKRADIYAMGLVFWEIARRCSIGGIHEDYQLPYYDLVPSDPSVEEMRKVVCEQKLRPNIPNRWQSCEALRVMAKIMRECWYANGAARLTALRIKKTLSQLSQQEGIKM

The target of assay [9] is T2, UniProt O00444.
T2 sequence (whole entry): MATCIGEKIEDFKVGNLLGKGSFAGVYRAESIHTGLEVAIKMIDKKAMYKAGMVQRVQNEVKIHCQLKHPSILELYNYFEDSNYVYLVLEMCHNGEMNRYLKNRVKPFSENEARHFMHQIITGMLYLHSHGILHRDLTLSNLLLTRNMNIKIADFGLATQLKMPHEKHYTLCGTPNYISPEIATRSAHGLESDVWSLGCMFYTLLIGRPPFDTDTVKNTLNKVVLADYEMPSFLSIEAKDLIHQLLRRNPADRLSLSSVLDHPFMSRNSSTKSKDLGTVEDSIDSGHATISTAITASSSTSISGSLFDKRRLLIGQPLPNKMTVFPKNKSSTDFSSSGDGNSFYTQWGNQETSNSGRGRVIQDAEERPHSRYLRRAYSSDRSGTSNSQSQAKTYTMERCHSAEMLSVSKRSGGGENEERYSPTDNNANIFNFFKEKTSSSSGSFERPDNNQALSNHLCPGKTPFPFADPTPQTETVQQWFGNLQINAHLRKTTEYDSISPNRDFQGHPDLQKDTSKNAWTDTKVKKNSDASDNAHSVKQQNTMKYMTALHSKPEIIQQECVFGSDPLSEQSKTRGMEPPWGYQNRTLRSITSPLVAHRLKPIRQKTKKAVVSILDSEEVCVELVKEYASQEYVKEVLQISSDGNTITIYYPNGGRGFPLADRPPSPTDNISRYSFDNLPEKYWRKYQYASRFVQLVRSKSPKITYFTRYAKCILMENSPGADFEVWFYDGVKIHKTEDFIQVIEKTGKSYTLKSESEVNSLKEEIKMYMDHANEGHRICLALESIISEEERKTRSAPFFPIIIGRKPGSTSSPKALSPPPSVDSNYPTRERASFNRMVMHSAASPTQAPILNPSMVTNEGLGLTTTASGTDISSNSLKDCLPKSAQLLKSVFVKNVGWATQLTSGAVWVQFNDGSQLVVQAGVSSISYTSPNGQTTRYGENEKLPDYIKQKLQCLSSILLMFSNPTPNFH

For assay [10], the target named is UniProt P19784.
Assay [11] concerns the target UniProt P28482.
Assay [12] deals with T3, UniProt Q13043.
T3 sequence (whole entry): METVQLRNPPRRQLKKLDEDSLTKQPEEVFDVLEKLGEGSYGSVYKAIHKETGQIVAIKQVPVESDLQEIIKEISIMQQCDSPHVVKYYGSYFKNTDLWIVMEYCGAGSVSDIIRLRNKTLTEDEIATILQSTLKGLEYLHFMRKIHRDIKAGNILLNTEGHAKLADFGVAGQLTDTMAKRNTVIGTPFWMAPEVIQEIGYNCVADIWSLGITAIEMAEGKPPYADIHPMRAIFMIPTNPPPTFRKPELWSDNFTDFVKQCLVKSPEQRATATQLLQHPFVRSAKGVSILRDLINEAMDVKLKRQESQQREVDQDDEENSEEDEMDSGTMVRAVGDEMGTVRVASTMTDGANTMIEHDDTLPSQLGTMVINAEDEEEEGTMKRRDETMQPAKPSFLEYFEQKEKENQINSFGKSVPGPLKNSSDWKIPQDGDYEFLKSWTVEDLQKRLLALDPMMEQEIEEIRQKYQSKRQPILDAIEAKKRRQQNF

The target in assay [13] is UniProt Q13164.
Assay [14] has as its target UniProt Q9Y2H1.

Take `CCc1cnn2c(NCc3ccc[n+]([O-])c3)cc(N3CCCC[C@H]3CCO)nc12` [dinaciclib]: the pIC50 (in general, the negative decadic logarithm of the IC50, by convention in mol/L) in [1] was 4.6; in assay [2], under 4.52; in assay [3] it was under 4.52; in assay [4], under 4.52; in [5] it was under 4.52; in assay [6] it was under 4.52. Besides, the pIC50 in [7], in assay [8], in [9], in assay [10], in assay [11] and in assay [12] was under 4.52 each time. The pIC50 in [13] and in assay [14] was under 4.52 in each case.
